Assay: xn = mol fraction of the nth substance listed
Details: 101 kPa

Work on `CC[n+]1ccn(C)c1.COS(=O)(=O)[O-]` + CC(=O)O yielded a speed of sound (298.15 K, x2 = 0) of 1758 m/s, a speed of sound (298.15 K, x2 = 0.1669) of 1713 m/s and a speed of sound (298.15 K, x2 = 0.3003) of 1665 m/s. The speed of sound (298.15 K, x2 = 0.5004) was 1593 m/s, the speed of sound (298.15 K, x2 = 0.6432) was 1501 m/s and the speed of sound (298.15 K, x2 = 0.7503) was 1419 m/s. It also gave a speed of sound (298.15 K, x2 = 0.9001) of 1274 m/s, a speed of sound (298.15 K, x2 = 0.9546) of 1202 m/s and a speed of sound (303.15 K, x2 = 0) of 1745 m/s. It also gave a speed of sound (303.15 K, x2 = 0.1669) of 1702 m/s, a speed of sound (303.15 K, x2 = 0.3003) of 1650 m/s and a speed of sound (303.15 K, x2 = 0.5004) of 1580 m/s. The speed of sound (303.15 K, x2 = 0.7503) was 1403 m/s, the speed of sound (303.15 K, x2 = 0.9001) was 1258 m/s and the speed of sound (303.15 K, x2 = 0.9783) was 1151 m/s. The speed of sound (308.15 K, x2 = 0) was 1734 m/s, the speed of sound (308.15 K, x2 = 0.3003) was 1641 m/s and the speed of sound (308.15 K, x2 = 0.5004) was 1568 m/s. For the same compound, the speed of sound (308.15 K, x2 = 0.6432) was 1473 m/s, the speed of sound (308.15 K, x2 = 0.7503) was 1391 m/s and the speed of sound (308.15 K, x2 = 0.8336) was 1318 m/s. It also gave a speed of sound (308.15 K, x2 = 0.9001) of 1246 m/s, a speed of sound (308.15 K, x2 = 0.9546) of 1172 m/s and a speed of sound (308.15 K, x2 = 0.9783) of 1136 m/s. It also gave a speed of sound (313.15 K, x2 = 0) of 1723 m/s, a speed of sound (313.15 K, x2 = 0.1669) of 1681 m/s and a speed of sound (313.15 K, x2 = 0.3003) of 1624 m/s. The speed of sound (313.15 K, x2 = 0.6432) was 1456 m/s, the speed of sound (313.15 K, x2 = 0.7503) was 1371 m/s and the speed of sound (313.15 K, x2 = 0.8336) was 1298 m/s. It also gave a speed of sound (313.15 K, x2 = 0.9001) of 1225 m/s, a speed of sound (313.15 K, x2 = 0.9546) of 1152 m/s and a speed of sound (313.15 K, x2 = 0.9783) of 1116 m/s.
`CC[n+]1ccn(C)c1.COS(=O)(=O)[O-]` + CCC(=O)O showed a speed of sound (298.15 K, x2 = 0) of 1758 m/s, a speed of sound (298.15 K, x2 = 0.1332) of 1715 m/s and a speed of sound (298.15 K, x2 = 0.2478) of 1669 m/s. It also gave a speed of sound (298.15 K, x2 = 0.4345) of 1590 m/s, a speed of sound (298.15 K, x2 = 0.5804) of 1509 m/s and a speed of sound (298.15 K, x2 = 0.6975) of 1430 m/s. For the same compound, the speed of sound (298.15 K, x2 = 0.7935) was 1356 m/s, the speed of sound (298.15 K, x2 = 0.8737) was 1285 m/s and the speed of sound (298.15 K, x2 = 0.9417) was 1215 m/s. For the same compound, the speed of sound (303.15 K, x2 = 0) was 1745 m/s, the speed of sound (303.15 K, x2 = 0.1332) was 1701 m/s and the speed of sound (303.15 K, x2 = 0.2478) was 1656 m/s. It also gave a speed of sound (303.15 K, x2 = 0.4345) of 1576 m/s, a speed of sound (303.15 K, x2 = 0.5804) of 1493 m/s and a speed of sound (303.15 K, x2 = 0.6975) of 1413 m/s. The speed of sound (303.15 K, x2 = 0.7935) was 1339 m/s, the speed of sound (303.15 K, x2 = 0.8737) was 1267 m/s and the speed of sound (303.15 K, x2 = 0.9417) was 1197 m/s. It also gave a speed of sound (303.15 K, x2 = 0.9719) of 1162 m/s, a speed of sound (308.15 K, x2 = 0) of 1734 m/s and a speed of sound (308.15 K, x2 = 0.1332) of 1689 m/s. For the same compound, the speed of sound (308.15 K, x2 = 0.2478) was 1642 m/s, the speed of sound (308.15 K, x2 = 0.4345) was 1563 m/s and the speed of sound (308.15 K, x2 = 0.5804) was 1478 m/s. For the same compound, the speed of sound (308.15 K, x2 = 0.6975) was 1396 m/s, the speed of sound (308.15 K, x2 = 0.7935) was 1321 m/s and the speed of sound (308.15 K, x2 = 0.8737) was 1249 m/s. It also gave a speed of sound (308.15 K, x2 = 0.9417) of 1178 m/s, a speed of sound (308.15 K, x2 = 0.9719) of 1143 m/s and a speed of sound (313.15 K, x2 = 0) of 1723 m/s. It also gave a speed of sound (313.15 K, x2 = 0.1332) of 1678 m/s, a speed of sound (313.15 K, x2 = 0.2478) of 1630 m/s and a speed of sound (313.15 K, x2 = 0.4345) of 1549 m/s. The speed of sound (313.15 K, x2 = 0.5804) was 1462 m/s, the speed of sound (313.15 K, x2 = 0.6975) was 1380 m/s and the speed of sound (313.15 K, x2 = 0.7935) was 1304 m/s. The speed of sound (313.15 K, x2 = 0.8737) was 1231 m/s and the speed of sound (313.15 K, x2 = 0.9417) was 1160 m/s.
Compound `CC(=O)O` + CC[n+]1ccn(C)c1.COS(=O)(=O)[O-] has a speed of sound (298.15 K, x1 = 1) of 1133 m/s, a speed of sound (303.15 K, x1 = 1) of 1117 m/s and a speed of sound (308.15 K, x1 = 1) of 1102 m/s. For the same compound, the speed of sound (313.15 K, x1 = 1) was 1082 m/s.
`CCC(=O)O` + CC[n+]1ccn(C)c1.COS(=O)(=O)[O-] showed a speed of sound (303.15 K, x1 = 1) of 1129 m/s and a speed of sound (308.15 K, x1 = 1) of 1110 m/s.

— a compilation of properties of binary mixtures (doi:10.1016/j.molliq.2016.02.091)
